# Results from EP4332093A1, “SALT CONTAINING PIPERAZINE POLYCYCLIC DERIVATIVE, CRYSTAL FORM THEREOF, PREPARATION METHOD THEREFOR, AND USE THEREOF” (Shanghai Hansoh Biomedical Co., Ltd., priority 2021, dated 2022).
# Like-named read-outs stand apart in the source and are kept apart here.
# Key:
# D3 receptor = target: T1, D3 receptor (Homo sapiens, UniProt P35462); assay: cAMP content in cells stably expressing D3 receptors (CHO-D3, forskolin, HTRF); type: cell-based
# T1 construct: expressed in transfected cells
# T1 sequence (P35462 whole entry): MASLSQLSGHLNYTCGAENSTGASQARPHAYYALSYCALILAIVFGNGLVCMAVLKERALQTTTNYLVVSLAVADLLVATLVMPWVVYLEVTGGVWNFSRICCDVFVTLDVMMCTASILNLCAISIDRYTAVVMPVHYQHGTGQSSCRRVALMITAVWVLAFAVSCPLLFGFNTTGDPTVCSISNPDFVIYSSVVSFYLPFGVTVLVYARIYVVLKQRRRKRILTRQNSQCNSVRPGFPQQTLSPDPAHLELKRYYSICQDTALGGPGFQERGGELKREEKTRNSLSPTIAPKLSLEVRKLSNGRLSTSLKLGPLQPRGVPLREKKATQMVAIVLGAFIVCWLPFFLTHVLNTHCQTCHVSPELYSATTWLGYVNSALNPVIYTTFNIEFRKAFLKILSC
# [1] = Pharmacokinetic assay in Balb/c mice (plasma and brain tissue); type: in vivo; details: male, mouse, po, p.o. 5 mg/kg; for AUC(0-t): read-out: Area under curve AUC0-t; for Tmax: read-out: Peak time tmax; for Cmax: read-out: Plasma concentration Cmax; for AUC(0-inf): read-out: Area under curve AUC0-∞; for MRT: read-out: Average residence time MRT; for half-life: read-out: Half life t1/2 (converted)
# In short: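 Fasted male Balb/c mice (12 per group) received 5 mg/kg p.o. in 0.5% CMC-Na/1% Tween80. Plasma and whole brain were collected […]. Compound was quantified by LC/MS/MS after acetonitrile precipitation, with PK parameters from noncompartmental analysis.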
# 5-HT2A receptor = 5-HT2A receptor (Homo sapiens, UniProt P28223); assay: Calcium ion mobility in cells stably expressing 5-HT2A receptors (Flp-In-CHO-5HT2A, FLIPR); type: cell-based; set-up: expressed in transfected cells; details: Flp-In-CHO-5HT2A stable pool, 5HT stimulation
# Sequence of 5-HT2A receptor (P28223 whole entry): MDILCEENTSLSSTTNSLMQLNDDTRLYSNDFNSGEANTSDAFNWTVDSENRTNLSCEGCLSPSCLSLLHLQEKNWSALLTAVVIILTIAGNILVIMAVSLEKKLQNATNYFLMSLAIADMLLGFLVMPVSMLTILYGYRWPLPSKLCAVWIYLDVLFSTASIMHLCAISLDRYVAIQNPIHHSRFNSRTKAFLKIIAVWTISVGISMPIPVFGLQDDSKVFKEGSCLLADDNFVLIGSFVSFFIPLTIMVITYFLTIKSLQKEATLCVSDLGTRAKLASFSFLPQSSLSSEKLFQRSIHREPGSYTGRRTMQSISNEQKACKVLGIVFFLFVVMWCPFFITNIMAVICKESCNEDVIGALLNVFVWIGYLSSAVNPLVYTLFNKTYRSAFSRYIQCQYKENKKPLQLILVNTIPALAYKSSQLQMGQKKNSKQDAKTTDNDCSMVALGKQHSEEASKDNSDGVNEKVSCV
SMILES,EC50 (D3 receptor),AUC(0-t) ([1]; Brain),Tmax ([1]; Brain),Cmax ([1]; Brain),AUC(0-t) ([1]; Plasma),AUC(0-inf) ([1]; Plasma),MRT ([1]; Plasma),half-life ([1]; Plasma),Tmax ([1]; Plasma),Cmax ([1]; Plasma),IC50 (5-HT2A receptor),AUC(0-inf) ([1]; Brain)
"O=C(N[C@H]1C[C@H](CCN2CCN(c3cccc(Cl)c3Cl)CC2)C1)C1(O)CC1 [Example 6A, N-(Trans-3-(2-(4-(2,3-dichlorophenyl)piperazin-1-yl)ethyl)cyclobutyl)-1-hydroxycy clopropane-1-carboxamide]",0.6 nM,1080 ng·h/mL,1 h,321 ng/mL,1420 ng·h/mL,1440 ng·h/mL,1.8 h,1.3 h,0.5 h,745 ng/mL,3.07 nM,
"O=C(N[C@H]1C[C@H](CCN2CCN(c3cccc(Cl)c3Cl)CC2)C1)c1nccs1 [Example 7A, N-(Trans-3-(2-(4-(2,3-dichlorophenyl)piperazin-1-yl)ethyl)cyclobutyl)thiazole-2-car boxamide]",1 nM,1350 ng·h/mL,1 h,179 ng/mL,395 ng·h/mL,501 ng·h/mL,5.3 h,3.7 h,1 h,102 ng/mL,2.74 nM,
"O=C(N[C@H]1C[C@H](CCN2CCN(c3cccc(Cl)c3Cl)CC2)C1)c1cccc2ncccc12 [Example 19A, N-(Trans-3-(2-(4-(2,3-dichlorophenyl)piperazin-1-yl)ethyl)cyclobutyl)quinoline-5-c arboxamide]",1.6 nM,1240 ng·h/mL,1 h,372 ng/mL,456 ng·h/mL,471 ng·h/mL,1.8 h,1.7 h,0.5 h,349 ng/mL,7.67 nM,
"O=C(N[C@H]1C[C@H](CCN2CCN(c3cccc(Cl)c3Cl)CC2)C1)c1ncco1 [Example 12A, N-(Trans-3-(2-(4-(2,3-dichlorophenyl)piperazin-1-yl)ethyl)cyclobutyl)oxazole-2-car boxamide]",0.6 nM,8130 ng·h/mL,1 h,1760 ng/mL,1840 ng·h/mL,1970 ng·h/mL,3.1 h,1.9 h,0.5 h,673 ng/mL,2.21 nM,

# Next, values leading:
EC50 (D3 receptor),AUC(0-t) ([1]; Brain),Tmax ([1]; Brain),Cmax ([1]; Brain),AUC(0-t) ([1]; Plasma),AUC(0-inf) ([1]; Plasma),MRT ([1]; Plasma),half-life ([1]; Plasma),Tmax ([1]; Plasma),Cmax ([1]; Plasma),IC50 (5-HT2A receptor),AUC(0-inf) ([1]; Brain),SMILES
0.7 nM,5200 ng·h/mL,1 h,1870 ng/mL,1620 ng·h/mL,1710 ng·h/mL,2.4 h,1.8 h,0.5 h,715 ng/mL,11.6 nM,,"O=C(N[C@H]1C[C@@H](CCN2CCN(c3cccc(Cl)c3Cl)CC2)C1)c1ncco1 [Example 12B, N-(Cis-3-(2-(4-(2,3-dichlorophenyl)piperazin-1-yl)ethyl)cyclobutyl)oxazole-2-carbo xamide]"
1.7 nM,4830 ng·h/mL,1 h,1200 ng/mL,1040 ng·h/mL,1230 ng·h/mL,3.9 h,2.8 h,0.5 h,391 ng/mL,5.2 nM,4880 ng·h/mL,"O=C(NC1CC(CCN2CCN(c3cccc(Cl)c3Cl)CC2)C1)c1ncco1 (stereo not shown) [Example 12, N-(3-(2-(4-(2,3-Dichlorophenyl)piperazin-1-yl)ethyl)cyclobutyl)oxazole-2-carboxamide]"
